This note sets out measurements from patent publication US20200016277A1, “NANOPARTICLES FOR ACTIVE AGENT DELIVERY TO BRAIN CANCERS” (MUSC FOUNDATION FOR RESEARCH DEVELOPMENT, priority 2017, published 2020).

For this assay, the system named is U87 cells. In words: Cytotoxicity of TMZ micelles (Guava ViaCount cell viability assay).

Protocol: Three cytotoxicity experiments, using Guava Via-Count Assay and flow cytometry (EMD Millipore, MA, USA), were performed using increasing concentrations of free TMZ, MTMZ and PMTMZ over increasing time. Cells (30,000 cells per well) were plated in 24-well plates and incubated overnight at 37° C. with 5% CO2. A TMZ solution (1 mg ml^−1) in DMSO was prepared and stored at 4° C. The stock solution was diluted with alpha-MEM and used to prepare free TMZ at increasing concentrations of 0-100 04. Independently, both 1 μM and 10 04 samples of PMTMZ and MTMZ were prepared with alpha-MEM. The triplicate wells were treated with concentrations at a constant volume of 200 μl per well. After 24 h, cell viability was performed using Guava ViaCount Assay and flow cytometry (EMD Millipore). The remaining wells were retreated with the appropriate concentrations over a 10 day period. Viability data was collected and analyzed.

With `Cn1nnc2c(C(N)=O)ncn2c1=O` [free TMZ, temozolomide], the “Cells killed (cell death)” value (U87, 1 μM, between 1 and 5 days) is “approximately 4%”. Where the note is “U87, 10 or 100 μM, between 24 and 72 h”, this compound gave a Cell death of around 2%.
